Series [1] has as its system Arabidopsis thaliana.
The subject of series [2] is Capsicum annuum. Description: Capsicum annuum hypocotyls with roots, flow cytometry (Experiment A1.3). Type of series: in vivo. The text has this: (§1) FIGS. 14A and B illustrates from left to right: Average number of nuclei per microliter of carrier fluid; Endoreplication index (EI), for defence (EIDEFENCE) and for growth (EIGROWTH) of the analysed plant samples from different plant systems exposed to the various treatments mentioned in the table. Data are expressed relative to the first listed condition of each experiment (reference). […] In particular, the toxic effect of Cd in T. nicotiana (see Experiment A1.1) was confirmed by the present invention since EIGROWTH decreased and EIDEFENCE increased in the plant seedlings. Mitigation of this Cd-induced growth inhibition by biochar was confirmed (see Experiment A1.2). […] To optimize the growing medium for A. thaliana, different dilutions of MS medium were tested (see Experiment A1.4). […] The toxic effects of ACC (see Experiment A1.8), IAA (see Experiment A1.9) and the osmoticum PEG (simulating drought stress, see Experiment A1.10) on A. thaliana were confirmed by the present invention since EIGROWTH decreased and EIDEFENCE increased.
(In general: Flow cytometry measures light scatter and fluorescence of single cells or particles in a stream.)

In series [3] the test system is D. caryophyllus seedlings. Nature of the series: D. caryophyllus seedlings in 48-well microtiter plate with 1/4 MS medium, flow cytometry. Type of series: in vivo, Dianthus caryophyllus. The conditions noted are these: 9 days. As to the method:
Since results are promising for young seedlings of A. thaliana, it was also investigated whether the invention works in other plant species. To investigate whether the tipping point can also be determined using another plant species, tetraploid D. caryophyllus plants (i.e., basic ploidy level is 4C) were grown in a 48-well microtiter plate with ¼ MS medium and exposed to a Cd concentration range between 0 and 50 μM Cd. FIG. 13 illustrates flow cytometry data of D. caryophyllus seedlings exposed to a Cd range (10-50 μM Cd) and harvested after 9 days. Data are expressed relative to the control condition shown by the horizontal line (1.0). A) Average number of nuclei per microliter of carrier fluid; B) Endoreplication index (EI); C) Relative ploidy level; D) Relative ratios of consecutive ploidy levels; E) EIDEFENCE; and F) EIGROWTH. One-way ANOVA compared to the unexposed condition: * p<0.05.

The subject of series [4] is Tobacco nicotiana. Nature of the series: Tobacco nicotiana seedlings, flow cytometry (Experiments A1.1, A1.2). It counts as in vivo. The conditions noted are these: plant seedlings, Cd, Experiment A1.1.
Source text: as §1

For series [5], the system named is A. thaliana leaves. Description: A. thaliana leaves cultivated in a hydroponic system, flow cytometry. Type of series: in vivo, Arabidopsis thaliana. As to the method:
To investigate whether the tipping point can also be determined using another cultivation system, A. thaliana plants were grown in a hydroponic system and exposed to a Cd concentration range after 11 days. Since results are promising for young seedlings, it was also investigated whether the invention works in plants of different ages. Therefore, individual samples of the first and the third leaf were harvested at different time points.
LEAF 1: FIG. 11 illustrates flow cytometry data of the first A. thaliana leaf exposed to a Cd range (1-10 μM Cd) after 11 days and harvested at different time points (12-21 days). Data are expressed relative to the unexposed condition (0 μM Cd=1.0). A) Endoreplication index (EI); B) Relative ploidy level; C) Relative ratios of consecutive ploidy levels; D) EIDEFENCE; and E) EIGROWTH. One-way ANOVA compared to the unexposed condition: * p<0.05. […] As known from literature, the maximum ploidy level of young leaves is lower than in mature plants. This is confirmed by the different ploidy levels observed, see FIG. 11B: leaf 1 reaches ploidy levels up to 8C after 12 days, 16C after 14 days and the highest ploidy level of 32C was only reached after 18 days. This shift in maximum ploidy level is hypothesized to influence the tipping point. Therefore, at each age, the tipping point is identified. […] This is confirmed by increased 8C/16C ratios, see FIG. 11C.
LEAF 3: FIG. 12 illustrates flow cytometry data of the third A. thaliana leaf exposed to a Cd range (1-10 μM Cd) after 11 days and harvested at different time points (14-21 days). Data are expressed relative to the unexposed condition (0 μM Cd=1.0). A) Endoreplication index (EI); B) Relative ploidy level; C) Relative ratios of consecutive ploidy levels; D) EIDEFENCE; and E) EIGROWTH. One-way ANOVA compared to the unexposed condition: * p<0.05. […] The different ploidy levels observed confirm the lower maximum ploidy level in young leaves, see FIG. 12B: leaf 3 reaches ploidy levels up to 8C after 14 days, 16C after 18 days and 32C after 21 days. At day 14, leaf 3 was focused on normal cell division as evidenced by the elevated 2C ratio.

Where [6] appears, read: toxic treatments, Experiments A1.8-A1.11.
The mark [7] stands for this setting: Cd 10-50 μM, 4C as tipping point.

The structures appear in SMILES notation. Like-named read-outs stand apart in the source and are kept apart here.

Consider `NC1(C(=O)O)CC1` [ACC], for which, in series [1] (setting [6]), the EIDEFENCE entry is on record as “increased” and the EIGROWTH result was “decreased”.
Regarding `[Cd]` [Cd, cadmium], the EIDEFENCE entry in series [1] (30 μM Cd or more, 10 days) is “significant and dose-dependent increases”; in series [1] (in vivo), “dose-dependent increase”; in series [1] (setting [6]), “increased”; in series [3] (setting [7]), “elevated values”; in series [4], “increased”; in series [5] (leaf 1, 1-10 μM Cd, FIG. 11D), “elevated values”. The EIDEFENCE result in series [5] (leaf 3, 1-10 μM Cd, FIG. 12D) is given as “elevated values”. Further, in series [1] (Cd concentrations from 30 µM or higher, 10 days), the “number of nuclei per microliter (plant growth)” value is on record as “significant decrease”. Moreover, the EIGROWTH entry is listed as “less pronounced dose-dependent decrease” in series [1] (in vivo); “decreased” in series [1] (setting [6]); “decreased values” in series [3] (setting [7]); “decreased” in series [4]; “decreased values” in series [5] (leaf 1, 1-10 μM Cd, FIG. 11E); “decreased values” in series [5] (leaf 3, 1-10 μM Cd, FIG. 12E). Also, the “growth (concentration of nuclei)” value in series [1] (in vivo) was “dose-dependent growth retardation”. The “endoreplication index EI” value in series [1] (seedlings in MS medium, Cd concentration range 0-50 μM, FIG. 10B) is given as “dose-dependent induction in endoreplication”. In addition, the toxic effect result in series [2] is given as “could be confirmed”. Also, the EI result in series [3] (50 μM Cd) was “decrease”; in series [5] (leaf 1, 1-10 μM Cd for 3 days or more (14-days-old plants or older)), “dose-dependent decrease”; in series [5] (leaf 3, 1-10 μM Cd, FIG. 12A), “dose-dependent decrease”. The nuclei concentration result in series [3] (50 μM Cd) was “decrease”. In series [5] (leaf 1, one day of exposure to Cd (12-days-old plants)), the “EI or ploidy levels” value is listed as “did not show significant changes”.
For `C=C1C[C@]23C[C@@]1(O)CC[C@H]2[C@@]12C=C[C@H](O)[C@@](C)(C(=O)O1)[C@H]2[C@@H]3C(=O)O` [GA3], the “growth-stimulating effect by EI indices” value in series [1] (Experiments A1.5-A1.7) is reported as “EIGROWTH increased and/or EIDEFENCE decreased”. Moreover, the “concentration at which a shift towards toxicity was detected (both EI indices showing an opposite trend)” value in series [1] (increasing concentrations, Experiment A1.7) came to 3 mg I-1.
With `O=C(O)Cc1c[nH]c2ccccc12` [IAA], in series [1] (setting [6]), the EIDEFENCE entry is on record as “increased” and the EIGROWTH entry is “decreased”.

The values are drawn from patent publication US20240302356A1, “METHOD FOR DETERMINING A TOXICITY AND/OR GROWTH PROMOTION EFFECT OF A TREATMENT OR COMPOUND” (priority 2021, published 2024).
